The results in this text go back to ChEMBL document CHEMBL1159162, “Conformationally constrained analogues of diacylglycerol (DAG). 3. Interaction of -alkyl--lactones with protein kinase C (PK-C)” (Bioorg Med Chem Lett, 1993).

Some results are limits rather than exact numbers.

Biological target in the first experiment: not listed separately
In words: (§1) Inhibition of [20-3H]phorbol-12,13-dibutyrate (PDBU) binding to protein kinase-C (PKC alpha, beta and gamma) from mouse brain.
Turning to `CCCCCCCCCCCC[C@H]1C(=O)O[C@@H](CO)[C@@H]1OC(C)=O`, the Ki (in general, a dissociation constant, usually derived from enzyme kinetics or from competition with a known ligand) was determined as 1100 nM. That is a single-digit micromolar value.

`CCCCCCCCCCCCCC(=O)O[C@H]1[C@H](CO)OC(=O)[C@@H]1CCCCCCCCCCCC` returned a Ki of 2900 nM.

On to `CCCCCCCCCCCCCC[C@H]1C(=O)O[C@@H](CO)[C@@H]1OC(C)=O`, for which the affinity corresponds to a Ki of 600 nM.

For the compound `CCCCCCCCCCCCCC(=O)OC[C@H](CO)OC(C)=O`, the affinity corresponds to a Ki of 500 nM. This Ki and that of the compound before are within 1.5-fold of each other.

Turning to `CCCCCCCCCCCCCC(=O)O[C@@H]1CC(=O)O[C@H]1CO`, affinity was put at a Ki of 2500 nM.

The compound `CCCCCCCCCCCCCC(=O)O[C@H]1CC(=O)O[C@@H]1CO` had a Ki of 5300 nM. This Ki is about 2.1-fold higher than that of the compound before.

A further experiment is filed under the species Mus musculus. The description is as §1.
`CCCCCCCCCCCCCC(=O)O[C@H]1C(CCCCCCCCCCCC)C(=O)O[C@@H]1CO` (stereo partly drawn): the ED50 is > 200000 nM.

`CCCCCCCCCCCCC1C(=O)O[C@H](CO)[C@H]1OC(C)=O` (stereo partly drawn): the ED50 was > 100000 nM.
